Data taken from EP1510220B1 (priority 1993, dated 1994).

How the values were obtained:
[1] = tested on: TGF-beta; assay: ELISA for TGF-beta in medium conditioned on human EX cultures; assay type: cell-based; conditions: 5 µM
Procedure: The total latent and active TGF-beta present was determined by a sandwich ELISA. Maxisorb 96-well ELISA plates (available from Gibco) were coated with neutralizing antiserum against TGF-beta (BDA19; available from R & D Systems) at 2 micrograms/cm^2 in phosphate buffered saline (PBS) overnight at room temperature. The plates were washed between each step with tris-buffered saline containing 0.1% Triton X-100 (available from Sigma Chemical Company). The plates were incubated with samples for 2 hours, with a second antibody to TGF-beta (BDA5; available from R & D Systems) at 0.1 micrograms/ml for 2 hours, anti-rabbit IgG peroxidase conjugated to antibody (available from Sigma Chemical Co.), made up according to manufacturer's instructions, for 15 minutes. Absorbances at 492 nm were converted into quantities of TGF-beta protein using a standard curve. Both conditioned media and standards were assayed in the presence of 10% FCS in DMEM. This assay was linear for TGF-beta concentrations in the range from 0.1 ng/ml to 20 ng/ml in the presence of 10% FCS in DMEM.
Cell counting, DNA synthesis assays and assays for total and active TGF-beta were performed as described in Example 7.

[2] = tested on: vascular smooth muscle cells; assay type: in vivo, pig; conditions: 4 days post-trauma
[3] = tested on: Vascular smooth muscle cells (BO54); assay: Scratch-migration assay with morphological toxicity grading; assay type: cell-based, baboon; set-up: key: - = no migration; +1 = minimal; +2 = mild; +3 = moderate; +4 = marked (maximum density; limit of cell contact inhibition) migration
Procedure: Scratch assays to determine the extent of smooth muscle cell migration inhibition by cytochalasin B were performed in accordance with the following protocol:
Vascular smooth muscle cells (BO54) were derived from explants of baboon aortic smooth muscle, as described in Example 1. The cells were grown in flat bottom, six well tissue culture plates, which hold about 5 ml of medium. The vascular smooth muscle cells were plated at 200,000 cells/well and placed at 37°C in a humidified 5% CO2 incubator for 18 hours. The wells were then scratched with a sterile portion of a single edge razor blade that was held by clamp or pliers and was brought aseptically into contact with the bottom of the well at a 90° angle. The cells from a small area along the scratch were removed by a sterile cotton tipped applicator while the blade was in contact with the bottom of the well. After incubation, the presence of cells in the "scratched" area is indicative of cell migration across the scratch line.
Briefly, a stock solution of cytochalasin B (Sigma Chemical Co.) in dimethyl sulfoxide (DMSO) at 1 mg/ml was prepared. Test dilutions of cytochalasin B or control medium were added. Each experiment included two sets of plates: • A set: Test agent exposure for 1, 3, 6, 8 and 10 days only; and • B set: Test agent exposure for 1, 3, 6, 8 and 10 days, followed by a seven day recovery time with control medium. Both sets of plates were fixed (10% formalin in PBS) and stained (0.02% crystal violet) at the end of the timed exposures. Test concentrations for cytochalasin B were 1, 0.1 and 0.01 µg/ml, and a negative medium control was included. Fresh medium and drug were supplied 3 times per week.
In this Table, "M" indicates Migration Grade, wherein - = no migration; +1 = minimal; +2 = mild; +3 = moderate; and +4 = marked (maximum density; limit of cell contact inhibition) migration of vascular smooth muscle cells into the cleared area adjacent to the scratch. In this Table, "T" denotes a morphological Toxicity Grade, wherein - = no toxicity; +1 = minimal; +2 = mild; +3 = moderate; and +4 = marked toxicity. The migration results are expressed as "Grade in the Cleared Area of the Well / Grade in an Undisturbed Region of the Well." The toxicity values represent a grade for all cells in each well.

Row | Compound | proportion of total TGF-beta protein that was activated [1] | total TGF-beta protein in conditioned medium [1] | BRDU labeling grade [2] | morphological Toxicity Grade ([3]; 7-day Recovery Post Exposure, 1.0 µg/mL, Day 1) | morphological Toxicity Grade ([3]; 7-day Recovery Post Exposure, 1.0 µg/mL, Day 3) | morphological Toxicity Grade ([3]; 7-day Recovery Post Exposure, 1.0 µg/mL, Day 6) | morphological Toxicity Grade ([3]; 7-day Recovery Post Exposure, 1.0 µg/mL, Day 8) | morphological Toxicity Grade ([3]; 7-day Recovery Post Exposure, 1.0 µg/mL, Day 10) | morphological Toxicity Grade ([3]; Continuous Exposure, 0.1 µg/mL, Day 3) | morphological Toxicity Grade ([3]; Continuous Exposure, 0.1 µg/mL, Day 6) | morphological Toxicity Grade ([3]; Continuous Exposure, 0.1 µg/mL, Day 8) | morphological Toxicity Grade ([3]; Continuous Exposure, 0.1 µg/mL, Day 10) | morphological Toxicity Grade ([3]; Continuous Exposure, 1.0 µg/mL, Day 1) | morphological Toxicity Grade ([3]; Continuous Exposure, 1.0 µg/mL, Day 3)
1 | CC/C(=C(\c1ccccc1)c1ccc(OCCN(C)C)cc1)c1ccccc1 [tamoxifen, trans-2-[4-(1,2-diphenyl-1-butenyl)phenoxy]-N,N-dimethylethylamine] | 55±5% | 6.0 ± 2.0 ng/mL | – | – | – | – | – | – | – | – | – | – | – | –
2 | cytochalasin B | – | – | 4 (4 = > 10/HPF) | +2 | +1 | +3 | +3 | +3 | +1 | +1 | +1 | +1 | +3 | +3
